Source: ChEMBL document CHEMBL3885881, “DrugMatrix”

Species on record: Rattus norvegicus
Test: DrugMatrix - Regimen: Daily Repeat
Type: toxicity, organism-based, Sprague-Dawley
Parameters: regimen Daily Repeat, gender Male, age 6-8 weeks
Conditions: in vivo, po, route oral GAVAGE, vehicle 100 % SALINE; for ABSOLUTE BASOPHIL / ABSOLUTE EOSINOPHIL / ABSOLUTE LYMPHOCYTE / ABSOLUTE MONOCYTE / ABSOLUTE SEGMENTED NEUTROPHIL / BASOPHIL / EOSINOPHIL / ERYTHROCYTE COUNT / HEMATOCRIT / HEMOGLOBIN / LEUKOCYTE COUNT / MEAN CORPUSCULAR HEMOGLOBIN / MEAN CORPUSCULAR HEMOGLOBIN CONCENTRATION / MEAN CORPUSCULAR VOLUME / MONOCYTE / NEUTROPHIL / NUCLEATED RED BLOOD CELLS / PLATELET COUNT: tissue Blood; for ALANINE AMINOTRANSFERASE / ALBUMIN / ALKALINE PHOSPHATASE / ASPARTATE AMINOTRANSFERASE / BLOOD UREA NITROGEN / CARBON DIOXIDE / CHLORIDE / CHOLESTEROL / CREATINE PHOSPHOKINASE / CREATININE / GLUCOSE / LACTATE DEHYDROGENASE / LIPASE / PHOSPHORUS / POTASSIUM / SODIUM / TOTAL BILIRUBIN / TOTAL PROTEIN / URIC ACID: tissue Plasma
[1] = 40 mg/kg, 120 h, dose level Low, time 5 day
[2] = 195 mg/kg, 72 h, dose level High, time 3 day
[3] = 195 mg/kg, 120 h, dose level High, time 5 day

With `Oc1ccccc1O` [CATECHOL] the “ABSOLUTE BASOPHIL” value [1] was 0 CELLS/uL, the “ABSOLUTE EOSINOPHIL” value [1] was 30.67 CELLS/uL and the “ABSOLUTE LYMPHOCYTE” value [1] was 8416.67 CELLS/uL. For the same compound, the “ABSOLUTE MONOCYTE” value [1] was 0 CELLS/uL, the “ABSOLUTE SEGMENTED NEUTROPHIL” value [1] was 952.67 CELLS/uL and the BASOPHIL [1] was 0%. For the same compound, the EOSINOPHIL [1] was 0.33%, the “ERYTHROCYTE COUNT” value [1] was 5.53 x10E6/uL and the HEMATOCRIT [1] was 33.83%. The HEMOGLOBIN [1] was 13.17 G/DL, the “LEUKOCYTE COUNT” value [1] was 9.4 x10E3/uL and the “MEAN CORPUSCULAR HEMOGLOBIN” value [1] was 23.8 pg. The “MEAN CORPUSCULAR HEMOGLOBIN CONCENTRATION” value [1] was 38.93 G/DL, the “MEAN CORPUSCULAR VOLUME” value [1] was 61.13 fL and the MONOCYTE [1] was 0%. For the same compound, the NEUTROPHIL [1] was 10.67%, the “NUCLEATED RED BLOOD CELLS” value [1] was 0 /100WBC and the “PLATELET COUNT” value [1] was 1168.67 x10E3/uL. The “ALANINE AMINOTRANSFERASE” value [1] was 60.67 u/L, the ALBUMIN [1] was 4.17 G/DL and the “ALKALINE PHOSPHATASE” value [1] was 318.33 u/L. The “ASPARTATE AMINOTRANSFERASE” value [1] was 89.67 u/L, the “BLOOD UREA NITROGEN” value [1] was 16 mg/dL and the “CARBON DIOXIDE” value [1] was 26 mmol/L. For the same compound, the CHLORIDE [1] was 104.67 MEQ/L, the CHOLESTEROL [1] was 77.67 mg/dL and the “CREATINE PHOSPHOKINASE” value [1] was 225.33 u/L. For the same compound, the CREATININE [1] was 0.14 mg/dL, the GLUCOSE [1] was 162 mg/dL and the “LACTATE DEHYDROGENASE” value [1] was 134.67 u/L. For the same compound, the LIPASE [1] was 9 u/L, the PHOSPHORUS [1] was 10.23 mg/dL and the POTASSIUM [1] was 5.58 MEQ/L. For the same compound, the SODIUM [1] was 152 MEQ/L, the “TOTAL BILIRUBIN” value [1] was 0.2 mg/dL and the “TOTAL PROTEIN” value [1] was 6.03 G/DL. For the same compound, the “URIC ACID” value [1] was 0.77 mg/dL, the “ABSOLUTE BASOPHIL” value [2] was 0 CELLS/uL and the “ABSOLUTE EOSINOPHIL” value [2] was 0 CELLS/uL. The “ABSOLUTE LYMPHOCYTE” value [2] was 16294.67 CELLS/uL, the “ABSOLUTE MONOCYTE” value [2] was 122.33 CELLS/uL and the “ABSOLUTE SEGMENTED NEUTROPHIL” value [2] was 1316.33 CELLS/uL. The BASOPHIL [2] was 0%, the EOSINOPHIL [2] was 0% and the “ERYTHROCYTE COUNT” value [2] was 5.5 x10E6/uL. For the same compound, the HEMATOCRIT [2] was 33.6%, the HEMOGLOBIN [2] was 13.2 G/DL and the “LEUKOCYTE COUNT” value [2] was 17.73 x10E3/uL. The “MEAN CORPUSCULAR HEMOGLOBIN” value [2] was 24 pg, the “MEAN CORPUSCULAR HEMOGLOBIN CONCENTRATION” value [2] was 39.27 G/DL and the “MEAN CORPUSCULAR VOLUME” value [2] was 61.13 fL. For the same compound, the MONOCYTE [2] was 0.67%, the NEUTROPHIL [2] was 7.33% and the “NUCLEATED RED BLOOD CELLS” value [2] was 0 /100WBC. For the same compound, the “PLATELET COUNT” value [2] was 1440 x10E3/uL, the “ALANINE AMINOTRANSFERASE” value [2] was 50.67 u/L and the ALBUMIN [2] was 4.1 G/DL. The “ALKALINE PHOSPHATASE” value [2] was 278.67 u/L, the “ASPARTATE AMINOTRANSFERASE” value [2] was 78 u/L and the “BLOOD UREA NITROGEN” value [2] was 12.33 mg/dL. The “CARBON DIOXIDE” value [2] was 25 mmol/L, the CHLORIDE [2] was 100.33 MEQ/L and the CHOLESTEROL [2] was 73 mg/dL. The “CREATINE PHOSPHOKINASE” value [2] was 460.33 u/L, the CREATININE [2] was 0.2 mg/dL and the GLUCOSE [2] was 161.33 mg/dL. The “LACTATE DEHYDROGENASE” value [2] was 133.67 u/L, the LIPASE [2] was 10.67 u/L and the PHOSPHORUS [2] was 11.7 mg/dL. For the same compound, the POTASSIUM [2] was 6.15 MEQ/L, the SODIUM [2] was 140.17 MEQ/L and the “TOTAL BILIRUBIN” value [2] was 0.17 mg/dL. For the same compound, the “TOTAL PROTEIN” value [2] was 5.9 G/DL, the “URIC ACID” value [2] was 1.73 mg/dL and the “ABSOLUTE BASOPHIL” value [3] was 0 CELLS/uL. The “ABSOLUTE EOSINOPHIL” value [3] was 0 CELLS/uL, the “ABSOLUTE LYMPHOCYTE” value [3] was 12717.67 CELLS/uL and the “ABSOLUTE MONOCYTE” value [3] was 34 CELLS/uL. The “ABSOLUTE SEGMENTED NEUTROPHIL” value [3] was 981.67 CELLS/uL, the BASOPHIL [3] was 0% and the EOSINOPHIL [3] was 0%. The “ERYTHROCYTE COUNT” value [3] was 5.35 x10E6/uL, the HEMATOCRIT [3] was 33.67% and the HEMOGLOBIN [3] was 13.33 G/DL. The “LEUKOCYTE COUNT” value [3] was 13.73 x10E3/uL, the “MEAN CORPUSCULAR HEMOGLOBIN” value [3] was 24.93 pg and the “MEAN CORPUSCULAR HEMOGLOBIN CONCENTRATION” value [3] was 39.6 G/DL. The “MEAN CORPUSCULAR VOLUME” value [3] was 62.9 fL, the MONOCYTE [3] was 0.33% and the NEUTROPHIL [3] was 7%. For the same compound, the “NUCLEATED RED BLOOD CELLS” value [3] was 0 /100WBC, the “PLATELET COUNT” value [3] was 1267.33 x10E3/uL and the “ALANINE AMINOTRANSFERASE” value [3] was 63.67 u/L. For the same compound, the ALBUMIN [3] was 4.47 G/DL, the “ALKALINE PHOSPHATASE” value [3] was 326 u/L and the “ASPARTATE AMINOTRANSFERASE” value [3] was 93 u/L. The “BLOOD UREA NITROGEN” value [3] was 15.33 mg/dL, the “CARBON DIOXIDE” value [3] was 27 mmol/L and the CHLORIDE [3] was 102.67 MEQ/L. For the same compound, the CHOLESTEROL [3] was 74.33 mg/dL, the “CREATINE PHOSPHOKINASE” value [3] was 321 u/L and the CREATININE [3] was 0.14 mg/dL. The GLUCOSE [3] was 145.33 mg/dL, the “LACTATE DEHYDROGENASE” value [3] was 130.67 u/L and the LIPASE [3] was 10 u/L. The PHOSPHORUS [3] was 10.1 mg/dL, the POTASSIUM [3] was 6.03 MEQ/L and the SODIUM [3] was 151 MEQ/L. The “TOTAL BILIRUBIN” value [3] was 0.2 mg/dL, the “TOTAL PROTEIN” value [3] was 6.43 G/DL and the “URIC ACID” value [3] was 0.73 mg/dL.
